The source of these data is DBAASP.

Experiment in all cases: ≥ marks a high value that may be exact or a test limit, other limits are often not marked, values filed in µg/mL are converted to µM
The subject of assay [1] is Escherichia coli B.
Assay [2] relates to Candida albicans F7-39/IDE99.
Assay [3] relates to Pseudomonas aeruginosa.
For assay [4], the system named is Bacillus subtilis 168.
For assay [5], the system named is Micrococcus luteus CCM 144.
The test system of assay [6] is Staphylococcus aureus.
For assay [7], the system named is Vibrio harveyi.
Assay [8] has as its system Escherichia coli MG1655.
Assay [9] deals with Aeromonas hydrophila.
In assay [10] the test system is Streptococcus mutans.

In brackets after ≈: the same amount, converted by molar mass. Several values for one entry are separate records, joined by “and”; a condition that tells them apart may be missing. Equal entries are not always repeated.

In the case of `CC[C@H](C)[C@H](NC(=O)[C@H](C)NC(=O)CNC(=O)[C@H](Cc1c[nH]c2ccccc12)NC(=O)[C@H](CC(N)=O)NC(=O)[C@@H](N)CC(C)C)C(=O)N[C@@H](CC(C)C)C(=O)N[C@@H](CCCCN)C(=O)N[C@@H](Cc1cnc[nH]1)C(=O)N[C@H](C(=O)N[C@@H](CCCCN)C(=O)N[C@@H](CCCCN)C(N)=O)[C@@H](C)CC` [LNWGAILKHIKK], the MIC in [1] is not below 70 µM; in assay [2] it was 11.3 µM (≈ 16 µg/mL); in assay [3], 93.3 µM (≈ 132 µg/mL); in assay [4] it was 13.3 µM (≈ 18.9 µg/mL); in assay [5], 10.8 µM (≈ 15.3 µg/mL); in assay [6], 100 µM (≈ 142 µg/mL).

On to `CC(C)C[C@H](NC(=O)CNC(=O)[C@H](C)NC(=O)CNC(=O)[C@H](Cc1c[nH]c2ccccc12)NC(=O)[C@H](CC(N)=O)NC(=O)[C@@H](N)CC(C)C)C(=O)N[C@@H](CCCCN)C(=O)N[C@@H](Cc1cnc[nH]1)C(=O)NCC(=O)NCC(=O)N[C@@H](CCCCN)C(N)=O` [LNWGAGLKHGGK], for which the MIC in assay [1] was not below 100 µM; in assay [2], not below 100 µM; in [3], more than 100 µM; in assay [4], not below 100 µM; in assay [5], not below 100 µM; in assay [6], more than 100 µM.

Consider `CC[C@H](C)[C@H](NC(=O)[C@H](C)NC(=O)[C@H](CCCN=C(N)N)NC(=O)[C@@H](NC(=O)CNC(=O)[C@H](Cc1cnc[nH]1)NC(=O)[C@H](CO)NC(=O)[C@@H](NC(=O)[C@H](Cc1c[nH]c2ccccc12)NC(=O)CNC(=O)[C@@H](NC(=O)[C@@H](NC(=O)[C@H](Cc1cnc[nH]1)NC(=O)[C@H](Cc1cnc[nH]1)NC(=O)[C@@H](NC(=O)[C@@H](N)Cc1ccccc1)[C@@H](C)CC)[C@@H](C)CC)[C@@H](C)CC)[C@@H](C)CC)C(C)C)C(=O)N[C@@H](C)C(=O)N[C@@H](CCCN=C(N)N)C(=O)N[C@@H](C)C(=O)N[C@H](C(=O)N[C@@H](Cc1cnc[nH]1)C(N)=O)[C@@H](C)CC` [FIHHIIGWISHGVRAIARAIH], for which the MIC is 16 µM (≈ 38.5 µg/mL) in assay [7]; 8 µM and 16 µM in assay [8]; not below 128 µM in [9].

In assay [10], `CC[C@H](C)[C@H](NC(=O)[C@H](CCC(N)=O)NC(=O)[C@H](CCCCN)NC(=O)[C@@H](NC(=O)[C@H](CCC(=O)O)NC(=O)[C@H](CCC(N)=O)NC(=O)[C@H](CC(C)C)NC(=O)[C@@H](NC(=O)[C@@H](N)CCCN=C(N)N)C(C)C)[C@@H](C)CC)C(=O)N[C@@H](CC(C)C)C(=O)N[C@@H](CCCCN)C(=O)O` [RVLQEIKQILK] displayed an MIC not below 183 µM.

Consider `NCCCC[C@H](NC(=O)[C@H](Cc1c[nH]c2ccccc12)NC(=O)[C@H](Cc1c[nH]c2ccccc12)NC(=O)[C@H](Cc1c[nH]c2ccccc12)NC(=O)[C@H](CCCN=C(N)N)NC(=O)[C@H](CCCN=C(N)N)NC(=O)[C@@H](N)CCCN=C(N)N)C(=O)O` [RRRWWWK], for which the MIC in assay [10] was not below 53.3 µM.

Regarding `CC[C@H](C)[C@H](NC(=O)[C@H](C)NC(=O)[C@H](CCCN=C(N)N)NC(=O)[C@H](Cc1cnc[nH]1)NC(=O)[C@@H](NC(=O)[C@H](C)NC(=O)[C@H](CCCN=C(N)N)NC(=O)[C@@H](NC(=O)CNC(=O)[C@H](C)NC(=O)[C@H](CO)NC(=O)[C@@H](NC(=O)[C@H](Cc1c[nH]c2ccccc12)NC(=O)CNC(=O)[C@@H](NC(=O)[C@@H](NC(=O)[C@H](Cc1cnc[nH]1)NC(=O)[C@H](Cc1cnc[nH]1)NC(=O)[C@@H](NC(=O)[C@@H](N)Cc1ccccc1)[C@@H](C)CC)[C@@H](C)CC)[C@@H](C)CC)[C@@H](C)CC)C(C)C)[C@@H](C)CC)C(=O)N[C@@H](Cc1cnc[nH]1)C(N)=O` [FIHHIIGWISAGVRAIHRAIH], the MIC in assay [7] is not below 64 µM; in assay [8], 8 µM and 16 µM; in assay [9] it was not below 128 µM.

For orientation: MIC means the least concentration at which growth counts as inhibited.
